Measured values as given in patent publication US5070210A, “Novel ketenimines as intermediates for insecticides” (ICI Americas Inc., priority 1990, dated 1991).

Tests used:
Format in all cases: in vivo
[1] = test system: Housefly [Musca domestica]; test: Housefly insecticidal test; settings: μg per 25 female flies; mortality after 48 hours
Summary of the method: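 Acetone solutions (with 0.01% peanut oil) dried onto dish bottoms, then 25 female flies, 1-2 days old, caged over the residue with sugar water. Mortality scored at 48 hours; LC50 from dosage-mortality curves, in μg per 25 female flies, top level 100 μg.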

[2] = test system: Tobacco Budworm [Heliothis virescens (Fabricius)] eggs; test: Tobacco budworm egg test; settings: 2-day old eggs, percent in solution
Summary of the method: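 2-day eggs on paper towel, acetone dip, 0.1% and below; petri dish with larval diet, 78° F. Mortality read after control hatch and larval feeding. LC50 = % compound in solution, from dose-mortality curve.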

[3] = test system: Cabbage Looper [Trichoplusia ni (Hubner)]; test: Cabbage looper insecticidal test; settings: second-instar larvae, percent in solution; 3-5 days
Summary of the method: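 LC50 values, given as percent test compound in solution, were calculated from dosage-mortality curves. Squash cotyledons were immersed 2-3 s in acetone-water (50-50) dilutions starting at 0.1%, dried on a screen, then infested with five second-instar larvae. Mortality was read 3-5 days on.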

[4] = test system: Maize weevil [Sitophilus Zeamais (Motschulsky)]; test: Maize weevil insecticidal test; settings: adult weevils, percent in solution; 48 hours
Method: The compounds in Tables 1 and 2 above were tested for insecticidal activity using the following testing procedures. LC50 values, based on the results of these tests and calculated according to dosage-mortality curves, are expressed in Table 3.
Maize weevil [Sitophilus Zeamais (Motschulsky)]:
Test compounds were diluted in a 50:50 acetone:water solution. Four corn seeds [Zea mays (L.)] which had been immersed in test solutions for 2-3 seconds and allowed to dry were placed in containers together with 10 adult weevils. The containers were covered and kept at a temperature of about 25° C. Mortality was recorded after 48 hours. Test concentrations ranged from 0.01% down to that at which 50% mortalilty occurred. The LC50 values are expressed below in Table 3 under the heading "MW" in terms of percent of the test compound in solution.

Row | SMILES | LC50, HF [1] [µg] | LC50, TBW, E (TBW-E) [2] [%] | LC50, CL [3] [%] | LC50, MW [4] [%]
1 | COc1ccc(N=C(OCc2ccc(F)c(Oc3ccc(F)cc3)c2)C(C)C)cc1Cl [Compound 408] | < 100 | 0.02 | 0.0015 | > 0.01
2 | COc1ccc(N=C(OCc2ccc(F)c(Oc3ccccc3)c2)C(C)C)cc1Cl [Compound 409] | < 100 | 0.025 | 0.0017 | > 0.01
3 | COc1ccc(N=C(OCc2ccc(F)c(Oc3ccc(Cl)cc3)c2)C(C)C)cc1Cl [Compound 410] | < 100 | > 0.1 | > 0.1 | > 0.01
4 | CCc1ccccc1N=C(OCc1cccc(Oc2ccc(F)cc2)c1)C(C)C [Compound 411] | < 100 | > 0.1 | > 0.1 | > 0.01
5 | COc1ccc(N=C(OCc2ccc(F)c(Oc3ccc(Cl)cc3)c2)C(C)C)cc1 [Compound 412] | < 100 | > 0.1 | > 0.1 | > 0.01
6 | CC(C)C(=Nc1ccc(F)c(I)c1)OCc1cccc(Oc2ccc(Cl)cc2)c1 [Compound 413] | < 100 | 0.04 | 0.0007 | > 0.01
7 | CC(C)C(=Nc1ccc(S(C)(=O)=O)cc1)OCc1ccc(F)c(Oc2ccc(F)cc2)c1 [Compound 414] | < 100 | > 0.1 | 0.0024 | > 0.01
8 | C=C(C)C(=Nc1ccc(F)c(Cl)c1)OCc1ccc(F)c(Oc2ccc(Cl)cc2)c1 [Compound 415] | < 100 | 0.035 | 0.00075 | > 0.01
9 | C=C(C)C(=Nc1ccc(F)c(Cl)c1)OCc1ccc(F)c(Oc2ccccc2)c1 [Compound 416] | < 100 | 0.018 | 0.00027 | > 0.01
10 | C=C(C)C(=Nc1ccc(F)c(Cl)c1)OCc1cccc(Oc2ccccc2)c1 [Compound 417] | < 100 | 0.04 | 0.0008 | > 0.01
11 | CC(C)C(=Nc1ccc(OC(F)(F)C(F)Cl)cc1)OCc1cccc(Oc2ccccc2)c1 (stereo not shown) [Compound 418] | > 100 | > 0.1 | > 0.1 | > 0.01
12 | CC(C)C(=Nc1ccc(OC(F)(F)C(F)Cl)cc1)OCc1ccc(F)c(Oc2ccccc2)c1 (stereo not shown) [Compound 419] | > 100 | > 0.1 | > 0.1 | > 0.01
13 | CC(C)C(=Nc1ccc(OCC(F)(F)F)c(Cl)c1)OCc1cccc(Oc2ccc(F)cc2)c1 [Compound 420] | > 100 | 0.05 | 0.00075 | > 0.01
14 | CC(C)C(=Nc1ccc(OCC(F)(F)F)c(Cl)c1)OCc1cccc(Oc2ccc(Cl)cc2)c1 [Compound 421] | > 100 | < 0.1 | 0.002 | > 0.01
15 | CC(C)C(=Nc1ccc(OCC(F)(F)F)cc1)OCc1ccc(F)c(Oc2ccccc2)c1 [Compound 422] | < 100 | 0.05 | 0.00075 | > 0.01
16 | CC(C)C(=Nc1ccc(OCC(F)(F)F)cc1)OCc1cccc(Oc2ccccc2)c1 [Compound 423] | > 100 | > 0.1 | 0.002 | > 0.01

Row | SMILES | LC50, HF [1] [µg] | LC50, TBW, E (TBW-E) [2] [%] | LC50, CL [3] [%] | LC50, MW [4] [%]
17 | CC(C)C(=Nc1ccc(OCC(F)(F)F)c(Cl)c1)OCc1ccc(F)c(Oc2ccccc2)c1 [Compound 424] | > 100 | 0.035 | 0.00038 | > 0.01
18 | CC(C)C(=Nc1ccc(OCC(F)(F)F)c(Cl)c1)OCc1cccc(Oc2ccccc2)c1 [Compound 425] | > 100 | > 0.1 | 0.00075 | > 0.01
19 | CCOc1cccc(N=C(OCc2ccc(F)c(Oc3ccc(F)cc3)c2)C(C)C)c1 [Compound 426] | > 100 | > 0.1 | 0.002 | > 0.01
20 | CC(C)C(=Nc1ccc(C(F)(F)F)cc1Cl)OCc1cccc(Oc2ccc(F)cc2)c1 [Compound 427] | > 100 | > 0.1 | < 0.1 | > 0.01
21 | CC(C)C(=Nc1ccc(C(F)(F)F)cc1Cl)OCc1ccc(F)c(Oc2ccccc2)c1 [Compound 428] | > 100 | > 0.1 | 0.0017 | > 0.01
22 | CC(C)C(=Nc1ccc(OCC(F)(F)F)c(F)c1)OCc1cccc(Oc2ccc(Cl)cc2)c1 [Compound 429] | > 100 | < 0.1 | 0.0017 | > 0.01
23 | C=C(C)C(=Nc1ccc(C(F)(F)F)cc1)OCc1cccc(Oc2ccccc2)c1 [Compound 430] | < 100 | 0.032 | 0.001 | 0.004
24 | CC(C)C(=Nc1ccc(C(F)(F)F)c(Br)c1)OCc1ccc(F)c(Oc2ccccc2)c1 [Compound 434] | < 100 | > 0.1 | 0.0017 | 0.009
25 | COc1ccc(N=C(OCc2ccc(F)c(Oc3ccccc3)c2)C(C)C)cc1F [Compound 435] | < 100 | 0.04 | 0.002 | > 0.01
26 | CC(C)C(=Nc1cccc(OC(F)(F)F)c1)OCc1ccc(F)c(Oc2ccc(Cl)cc2)c1 [Compound 436] | < 100 | < 0.1 | 0.00075 | > 0.01
27 | CC(C)C(=Nc1cccc(OC(F)(F)F)c1)OCc1ccc(F)c(Oc2ccccc2)c1 [Compound 437] | < 100 | 0.025 | 0.00075 | > 0.01
28 | CCc1ccc(N=C(OCc2cccc(Oc3ccc(F)cc3)c2)C(C)C)cc1Cl [Compound 438] | > 100 | < 0.1 | 0.0009 | > 0.01
29 | CCOc1ccc(N=C(OCc2ccc(F)c(Oc3ccccc3)c2)C(C)C)cc1F [Compound 439] | > 100 | > 0.1 | 0.00045 | > 0.01
30 | CCCc1ccc(N=C(OCc2ccc(F)c(Oc3ccc(F)cc3)c2)C(C)C)cc1 [Compound 440] | > 100 | < 0.1 | 0.002 | > 0.01
31 | CC(C)C(=Nc1ccc(Cl)c(F)c1)OCc1ccc(F)c(Oc2ccc(F)cc2)c1 [Compound 441] | < 100 | 0.016 | 0.000025 | 0.006
